Values quoted from earlier work in patent US20070077296A1, “Pharmaceutical Preparation containing Meloxicam” (priority 2005, published 2007).

- solubility in water: hardly dissolve in water
Structure (SMILES): Cc1cnc(NC(=O)C2=C(O)c3ccccc3S(=O)(=O)N2C)s1 [meloxicam, 4-hydroxy-2-methyl-N-(5-methyl-2-thiazolyl)-2H-1,2-benzothiazine-3-carboxamide-1,1-dioxide]
